The nature of data set [1]: Hgb and Hct after IV injection of the complex in a dog. In kind it is in vivo. To be noted: after injection of 12 mg Fe, IV push, about 10 minutes. Here is the method: (§1) A 17 kg dog was premedicated and then anesthesized with IV sodium amytal. Through a femoral vein cutdown, the following studies were drawn before and after the addition of the iron complex solution: Hgb, Hct, serum Fe and TIBC (Total Iron Binding Capacity). In addition, serum Fe and TIBC were drawn after the addition of one half of the solution.
(§2) 40 ml of fresh stock solution (containing 6 mg of iron) were given by IV push through the femoral vein. The dog's ECG was monitored throughout the procedure. In approximately 10 minutes, the second set of studies were drawn and a second 40 ml were pushed. The final set of blood studies were drawn in approximately 10 minutes.

The next data set deals with serum transferrin. As to the kind of experiment: Serum Fe, TIBC and saturation of serum transferrin after IV injection of the complex in a dog (efficacy to increase bioavailable iron). To be noted: for serum Fe / TIBC (Total Iron Binding Capacity): IV push; for serum Fe: before injection 235 (dog fed an iron rich diet); for TIBC (Total Iron Binding Capacity): before injection 360. In kind it is in vivo. Here is the method: as §1, §2

For data set [2] the following is noted: oral, relatively large daily doses; cited from earlier work.
[3] abbreviates: after injection of 6 mg Fe, about 10 minutes.
[4] abbreviates: after injection of 12 mg Fe, about 10 minutes after second 40 ml.

As for `CC(=O)N[O-].CC(=O)N[O-].CC(=O)N[O-].[Fe+3]` [ferric acetohydroxamic acid complex, iron (III) complex of acetohydroxamic acid], the Hgb in data set [1] (before injection 6.7) stood at 6.5 g%. The molecule further registered a Hct in data set [1] (before injection 20.5) of 20.0%. For the same molecule, the “saturation of serum transferrin” value in the data set on serum transferrin (addition of 6 mg of iron, IV, serum Fe equal to the TIBC) is reported as “saturated the serum transferrin”. Besides, in the data set with serum transferrin (after a further 6 mg of iron, IV), the “serum iron relative to TIBC” value is reported as “greater than the TIBC”. For the same molecule, in the data set on serum transferrin (setting [3]), the “serum Fe” value was determined as 360 μg/100 ml and the “TIBC (Total Iron Binding Capacity)” value is 360 μg/100 ml. Also, in the data set with serum transferrin (setting [4]), the “serum Fe” value turned out to be 470 μg/100 ml and the “TIBC (Total Iron Binding Capacity)” value worked out at 330 μg/100 ml.
On to ferrous sulfate, for which, in data set [2], the side effects result is on record as “nausea, vomiting, constipation”.

These data come from patent US4315942A, “Intravenously administrable iron supplement” (New England Medical Center, Inc., priority 1979, dated 1982).
